Test results taken from patent US20170226139A1, “CRYSTALLINE SALTS OF (Z)-O-OCTADEC-9-EN-1-YL O,O-DIHYDROGEN PHOSPHOROTHIOATE” (priority 2013, published 2017).
Like-named read-outs stand apart in the source and are kept apart here.

Assays:
[1] = Rx100 salt screening (solid formation, XRPD wet/dry, filterability, exposure to RH > 90%); settings: for Filterability / Crystallinity / Polymorphic behavior: Rx100 salt formed with the named base; for Crystallinity / Polymorphic behavior: XRPD; for All solvents were evaporated to get a gel: label = base, nature/filterability of the solid; for ON PLATE: stage 2 round 2, Rx100 free acid + 1 eq base (label = base)
Description: We designed a complex and unconventional screening regime to screen for Rx100 crystalline salts. […] The screening regime is described as follows.
Rx100.FA in the form of a viscous liquid and eighteen counter ions were used as starting materials. These counter ions are listed and numbered in Table 4. The numbers will be used for grouping the resulting solids. The screening was performed in three stages.
Stage one (1) included screening 11 counter ions: sodium hydroxide, ammonium hydroxide, ethylenediamine, diethylamine, tromethamine (Tris), hydroxyethyl morpholine, benzathine, dimethylamino ethanol, L-Arginine, L-Lysine, L-Histidine. […] In stage 1, we performed three rounds of experiment.
In the first round of experiment, four (4) solvent systems, i.e., isopropyl alcohol (IPA), diethyl ether (DEE), IPA:water (a mixture at a volume ratio of 95:5) and tetrahydrofuran (THF), were used. Thus in this first round of screening, 44 individual base-acid reactions were conducted in 44 vials.
First, Rx100.FA and each of the bases were mixed in a vial. […] In each of the 44 vials, 211.1 μL of the prepared liquid, which was equivalent to about 35 mg of Rx100.FA, was first dispensed. Then, one equivalent (molar) of each of the 11 bases was dispensed in its corresponding vial. For example, the base sodium hydroxide was added to vials 1, 12, 23 and 34. Similarly, L-histidine was added to vials 11, 22, 33 and 44. Observations were recorded upon addition of the bases in to Rx100.FA.
Second, the solvent in each mixture was depleted. All vials containing the mixtures of Rx100.FA and each of the bases were left under moderate vacuum and nitrogen bleed at room temperature overnight to evaporate the solvent. The vials were then kept under full vacuum for about an hour to make sure the solvents (ethanol and water) are evaporated. Observations on formation of solid upon evaporation were recorded.
Third, solvents were added in each vial to induce solid formation. In each vial, a stir bar and one of the four selected solvents (each 5 volumes with respect to the Rx100.FA) were added. The vials were then capped. IPA was added to the first set of 11 vials (1-11), DEE added to the second set of 11 vials (12-22), IPA:water added to the third set of 11 vials (23-33), and THF added to the fourth set of 11 vials (34-44). The vials were left at room temperature while stirring for at least 5 hours. Observations were recorded.
The first set of XRPD analyses were recorded as “wet” samples. The solids were dried under vacuum for 1 hour and at room temperature followed by XRPD as “dry” sample. The dry solid was then exposed to relative humidity of more than 90% overnight followed by XRPD analysis. For XRPD naming, a number and a letter were used. The number refers to the counter ion and the letter refers to the chronological discovered XRPD pattern of that particular salt.
In the second round of experiment of stage one, another four (4) solvent systems, i.e., methanol (MeOH), tert-Butyl methyl ether (tBME), ethyl acetate and toluene, were used in the same 44 vials as used in the first round experiment. The solvents in all 44 vials from the first round were evaporated to dryness under vacuum and nitrogen bleed. The 4 new solvents were then added into the vials. Methanol was added to the first set of 11 vials (1-11), tBME added to the second set of 11 vials (12-22), Ethyl acetate added to the third set of 11 vials (23-33), and Toluene added to the fourth set of 11 vials (34-44). The same procedure as in the first round of experiment was followed for these new solvents and samples were taken for XRPD analysis.
In the third round of experiment, effect of base equivalence was assessed. […] After addition of the extra base, the previous solvent was evaporated and new solvents added.

[2] = test system: S. typhimurium strains TA98, TA100, TA1535 and TA1537 and E. coli strain WP2uvrA; type: cell-based
Description: An Ames assay was conducted on Rx100.Lysine using S. typhimurium strains TA98, TA100, TA1535 and TA1537 and E. coli strain WP2uvrA. Two trials were performed. […] See Tables 38A and 38B, respectively. In the second trial, doses ranged from 0.160 to 16 μg/plate with some strains tested with activation and others without activation.

[3] = test system: Cultured human peripheral lymphocytes cells; type: cell-based; settings: for Aberrant Cells Mean % −g: excluding gaps only; for Aberrant Cells Mean % +g: plus cells with gaps only
Description: Cultured human peripheral lymphocytes cells were incubated in vitro with Rx100.Lysine for 3 hours with and without S9 mix and for 24 hours without S9 mix. For Rx100.Lysine, concentrations ranging from 3.39 to 500 μg/mL were examined in both treatment conditions. Adjusting for purity, the concentration ranges were 3.06 to 452 μg/mL. […] This increase was just above the historical vehicle control range (0 to 2.0%) for 3 hour treatment without metabolic activation. Thus the response observed is a weak positive and of questionable biological significance cytotoxicity was present just below the acceptable limit of 50±5% for this assay.
Thus, Rx100.Lysine was considered negative for inducing chromosome aberrations, polyploidy and endoreduplication, in cultured human peripheral blood lymphocytes following a 3 hour treatment with and a 24 treatment without metabolic activation.

[4] = Single subcutaneous dose pharmacokinetics in irradiated and unirradiated mice; type: in vivo, C57BL/6 mice; settings: single SC dose 1 mg/kg
Source text: We performed a randomized, open-label, single-dose, four-arm, subcutaneously-administered, study of the pharmacokinetics of Rx100.Ammonia and Rx100.Lysine in irradiated and unirradiated C57BL/6 mice to evaluate the effect of salt form and irradiation on extravascular pharmacokinetics. The purpose of this study was to evaluate the pharmacokinetic parameters for two salt forms of Rx100 (Lysine and Ammonia) in healthy and PB irradiated (IR) mice when administered as a single dose. Each animal received a 1 mg/kg dose of Rx100.Lysine or Rx100.Ammonia. The animals receiving Rx100.Lysine or Rx100.Ammonia after irradiation were dosed 26±2 hours after irradiation and sampling times are relative to the time of test article dosing.
More specifically, randomized, acclimated, C57BL/6 mice were administered Rx100.Lysine or Rx100.Ammonia (10 mM L-histidine in sterile water for injection, or 1% ethanol, 2% propylene glycol in PBS, respectively) as a single dose as indicated in Table 25.
Blood was collected from 4 male and 4 female mice via cardiac puncture at pre-defined time points relative to test article dosing (0.5, 1, 2, 4, 6, 8, 12, 18, 24, and 48 hours) and collected into micro plasma separator vials (BD Microtainer®) containing lithium heparin. Blood was maintained on ice until centrifugation and subsequent processing. Blood draws were a terminal procedure. Plasma was frozen at −80° C. until submitted for bioanalysis. Sample collection was completed in September 2012. Samples were transferred to Covance in December 2013, and sample analysis was complete in the first quarter of 2014.
A total of 160 male and 160 female C57BL/6 10-12 week old mice were used in this study. Animals were randomized with weight stratification into treatment groups and given a second ear tag. Animals were acclimated for 16-19 days (See below Table 26). Prior to irradiation or dosing (in non-irradiated groups), animals were weighed a second time which was the basis of the animal dose delivered.
TLDs were used for dosimetry and confirmation of the delivered dose. TLDs were analyzed by MD Anderson and have a +/−5% accuracy. A total of 19 dosimeters were used with a mean measured dose of 15.33±0.166 Gy.
Analysis was performed using qualified and validated Phoenix® WinNonlin® Software. The final data provided was imported into Phoenix® WinNonlin®. All data presented in the tables and figures within the results section of this report were generated using the validated Phoenix® WinNonlin® Software.

[5] = 3-hour treatment with metabolic activation, positive control 25.0 μg/mL
[6] = 3-hour treatment without metabolic activation, positive control 1.00 μg/mL
[7] = 24-hour treatment without metabolic activation, positive control 0.300 μg/mL
[8] = + IR (irradiated mice), whole group (not split by gender), 1 mg/kg
[9] = healthy mice, whole group (not split by gender), 1 mg/kg
[10] = irradiated mice (15.6 Gy, dosed 26 ± 2 h after), F, 1 mg/kg
[11] = irradiated mice (15.6 Gy, dosed 26 ± 2 h after), M, 1 mg/kg

[K+] [Potassium]
Filterability [1]: no | Crystallinity [1]: yes | Polymorphic behavior [1]: Polymorphic on XRPD

NC(CO)(CO)CO [Tromethamine]
Filterability [1]: no | Crystallinity [1]: no | Polymorphic behavior [1]: Oily on XRPD | RH > 90% overnight (XRPD pattern or state after exposure) ([1]; stage 1, third round, 2.1 eq of base, listed as 4-16): 5-A + Tris

O=[N+]([O-])c1ccc2c(c1)Cc1ccccc1-2 [2-nitrofluorene]
Revertant Colony Counts (Mean ± SD) ([2]; Without Metabolic Activation, TA98, positive control 1.0 μg/plate): 329 ± 65 ^N

O=P1(N(CCCl)CCCl)NCCCO1 (stereo not drawn) [cyclophosphamide, reference compound]
Cytotoxicity (% of Control) [3, 5]: 12 % of Control | Endoreduplicate Mean % [3, 5]: 0.0% | Polyploidy Mean % [3, 5]: 0.0% | Aberrant Cells Mean % −g [3, 5]: 58.0% | Aberrant Cells Mean % +g [3, 5]: 65.0%

Piperazine
Filterability [1]: yes | Crystallinity [1]: yes | Polymorphic behavior [1]: Multiple patterns on XRPD | Solid upon evaporation (Y/N) ([1]; stage 3, 35 mg Rx100 free acid + base (label = base), 1.05 eq, L-lysine 2.00 eq): Gel | All solvents were evaporated to get a gel ([1]; stage 3, 1.05 eq, L-lysine 2.00 eq, solvent MeOH:Water [9:1]): Greasy. | All solvents were evaporated to get a gel ([1]; stage 3, 1.05 eq, L-lysine 2.00 eq, solvent MeOH): Greasy.

Nc1ccc2cc3ccccc3cc2c1 [2-aminoanthracene]
Revertant Colony Counts (Mean ± SD) ([2]; TA100, with metabolic activation, positive control 2.5 μg/plate): 2106 ± 68 ^N | Revertant Colony Counts (Mean ± SD) ([2]; TA1535, with metabolic activation, positive control 2.5 μg/plate): 205 ± 11 ^N | Revertant Colony Counts (Mean ± SD) ([2]; TA1537, with metabolic activation, positive control 2.5 μg/plate): 176 ± 19 ^N C | Revertant Colony Counts (Mean ± SD) ([2]; WP2uvrA, with metabolic activation, positive control 25.0 μg/plate): 634 ± 14 ^N

[K+].[OH-] [KOH]
ON PLATE ([1]; Ethyl acetate): Greasy | ON PLATE ([1]; IPA:water (1:1)): Pasty

CO[C@@]12[C@H](COC(N)=O)C3=C(C(=O)C(C)=C(N)C3=O)N1C[C@@H]1N[C@@H]12 [Mitomycin C]
Endoreduplicate Mean % [3, 6]: 0.0% | Polyploidy Mean % [3, 6]: 0.0% | Aberrant Cells Mean % −g [3, 6]: 57.0% | Aberrant Cells Mean % +g [3, 6]: 59.0% | Endoreduplicate Mean % [3, 7]: 0.0% | Polyploidy Mean % [3, 7]: 0.0% | Aberrant Cells Mean % −g [3, 7]: 58.0% | Aberrant Cells Mean % +g [3, 7]: 61.0%

CCCCCCCC/C=C\CCCCCCCCOP(O)(O)=S [Rx100.Ammonia, (Z)—O-octadec-9-en-1-yl O,O-dihydrogen phosphorothioate]
CL ([4]; IR females): 10.5 mL/min/kg | AUC ([4]; IR females, 1 mg/kg): 1591 ng·h/mL | CL ([4]; IR males): 9.68 mL/min/kg | AUC ([4]; IR males, 1 mg/kg): 1721 ng·h/mL | half-life, change after irradiation ([4]; IR versus healthy mice): no change | CL ([4]; healthy females): 14.5 mL/min/kg | exposure (AUC) ([4]; healthy females, 1 mg/kg): 1152 ng·h/mL | CL ([4]; healthy males): 11 mL/min/kg | AUC ([4]; healthy males, 1 mg/kg): 1521 ng·h/mL | Tmax ([4]; healthy mice, 1 mg/kg): 30 to 60 min | Tmax ([4]; irradiated (IR) mice, 26±2 hours after 15.6 Gy, 1 mg/kg): 30 to 60 min | AUCINF_obs [4, 8]: 1644.99 ng·h/mL | CLss_F [4, 8]: 10.132 mL/min/kg | Cmax [4, 8]: 466.71 ng/mL | HL_Lambda_z [4, 8]: 1.37 h | Vz_F [4, 8]: 1.20034 L/kg | AUCINF_obs ([4]; healthy mice, F, 1 mg/kg): 1152.19 ng·h/mL | CLss_F ([4]; healthy mice, F, 1 mg/kg): 14.466 mL/min/kg | Vz_F ([4]; healthy mice, F, 1 mg/kg): 1.72837 L/kg | AUCINF_obs ([4]; healthy mice, M, 1 mg/kg): 1521.44 ng·h/mL | CLss_F ([4]; healthy mice, M, 1 mg/kg): 10.954 mL/min/kg | Vz_F ([4]; healthy mice, M, 1 mg/kg): 1.3407 L/kg | AUCINF_obs [4, 9]: 1342.00 ng·h/mL | CLss_F [4, 9]: 12.419 mL/min/kg | Cmax [4, 9]: 383.75 ng/mL | HL_Lambda_z [4, 9]: 1.78 h | Vz_F [4, 9]: 1.91818 L/kg | AUCINF_obs [4, 10]: 1591.05 ng·h/mL | CLss_F [4, 10]: 10.475 mL/min/kg | Vz_F [4, 10]: 1.22969 L/kg | AUCINF_obs [4, 11]: 1720.87 ng·h/mL | CLss_F [4, 11]: 9.685 mL/min/kg | Vz_F [4, 11]: 1.27697 L/kg

[N-]=[N+]=[N-] [sodium azide]
Revertant Colony Counts (Mean ± SD) ([2]; Without Metabolic Activation, TA100, positive control 2.0 μg/plate): 969 ± 137 ^N | Revertant Colony Counts (Mean ± SD) ([2]; Without Metabolic Activation, TA1535, positive control 2.0 μg/plate): 863 ± 45 ^N

COc1ccc2nc3cc(Cl)ccc3c(NCCCNCCCl)c2c1 [ICR-191]
Revertant Colony Counts (Mean ± SD) ([2]; Without Metabolic Activation, TA1537, positive control 2.0 μg/plate): 562 ± 33 ^N
